The data set can be described thus: solvent given as SMILES.

Values joined by “and” are separate entries in the source; they are usually repeats but may differ in a detail not shown here. Identical values can stand only once.

For the setting “in ClCCl”, `COc1ccc(-c2nnc(-c3cc(-n4c5ccccc5c5ccccc54)c(-n4c5ccccc5c5ccccc54)cc3-c3nnc(-c4ccc(OC)cc4)o3)o2)cc1` came in with an absorption maximum of 353 nm.

For the compound `CC(C)(C)c1ccc(-c2cc(-c3ccc(-c4cc(-c5ccc(C(C)(C)C)cc5)c(C(=O)N5CCCCC5)s4)s3)sc2C(=O)N2CCCCC2)cc1`, under “in ClCCl”, the absorption maximum is 378 nm.

`CC(=O)[O-]` came in with an absorption maximum (in O) of 210 nm.

Take `CC(C)[Si](C#Cc1ccc2c(C#C[Si](C(C)C)(C(C)C)C(C)C)cc3c4cc(C#C[Si](C(C)C)(C(C)C)C(C)C)ccc4c(C#C[Si](C(C)C)(C(C)C)C(C)C)cc3c2c1)(C(C)C)C(C)C`: the absorption maximum (in ClCCl) was determined as 394 nm.

In turn, `c1ccc(N2c3ccccc3C3(c4ccccc4-c4ccccc43)c3ccccc32)cc1` showed an absorption maximum (in ClCCl) of 310 nm.

In the case of `O=[N+]([O-])c1ccccc1O`, the absorption maximum runs as follows: (in CO) 338 nm; (in O) 411 nm.

`CC1=C(C#Cc2ccc(B(c3c(C)cc(C)cc3C)c3c(C)cc(C)cc3C)cc2)C(C)=[N+]2C1=C(c1ccccc1)c1c(C)c(C#Cc3ccc(B(c4c(C)cc(C)cc4C)c4c(C)cc(C)cc4C)cc3)c(C)n1[B-]2(F)F` displayed an absorption maximum (in ClCCl) of 576 nm.

The compound `COc1cc2c3c4c(c5ccc(C(C)(C)C)cc5c5c(OC)c(OC)c(OC)c(c2c(OC)c1OC)c45)=[N+]1C3=Nc2c3c4cc(OC)c(OC)c(OC)c4c4c(OC)c(OC)c(OC)c5c6cc(C(C)(C)C)ccc6c(c3c54)n2[B-]1(F)F` gave an absorption maximum (in Cc1ccccc1) of 850 nm.

The compound `CC(C)(C)c1ccc2c(c1)c1cc(C(C)(C)C)ccc1n2-c1ccc(C#Cc2ccc(C=O)cc2)cc1` showed an absorption maximum (in ClCCl) of 354 nm.

With `COc1ccc(C#Cc2ccccc2C#Cc2ccc(OC)cc2)cc1`, for the setting “in CC#N”, the absorption maximum came to 320 nm.

For `CCC1=C(C)C2=Cc3c4ccccc4c4n3[B-](C)(Oc3ccccc3-4)[N+]2=C1C` (stereo unspecified), the absorption maximum runs as follows: (in CC#N) 616 nm; (in CCCCCC) 621 nm; (in Cc1ccccc1) 625 nm; (in ClCCl) 622 nm.

Turning to `COc1ccc(/C=C/c2nc3c4ccccc4c4ccccc4c3o2)cc1`, the absorption maximum (in CC#N) was 368 nm.

`Cc1ccc(-c2nc3sc4ccccc4c3s2)cc1` registered an absorption maximum (in CS(C)=O) of 349 nm.

Take `COC1=[N+]2C(=C(c3ccccc3)c3ccc(OC)n3[B-]2(F)F)C=C1`: the absorption maximum is, setting by setting: (in CC#N) 510 nm; (in CCCCCC) 513 nm; (in CCOC(C)=O) 512 nm; (in CO) 511 nm; (in ClCCl) 515 nm.

For `C[Si](C)(C)c1ccc([Si](C)(C)C)c2ccccc12`, the absorption maximum (in C1CCCCC1) came to 300 nm.

The compound `N#Cc1c(-n2c3ccc(Br)cc3c3cc(Br)ccc32)c(C#N)c(-n2c3ccc(Br)cc3c3cc(Br)ccc32)c(-n2c3ccc(Br)cc3c3cc(Br)ccc32)c1-n1c2ccc(Br)cc2c2cc(Br)ccc21` gave an absorption maximum (in Cc1ccccc1) of 374 nm.

As to `CNc1cccc2c1C(=O)c1ccccc1-2`, the absorption maximum by setting is: (in C1CCCCC1) 432 nm; (in CC#N) 445 nm; (in CCO) 448 nm; (in c1ccccc1) 445 nm.

`N#Cc1c(-n2c3ccccc3c3cc(I)ccc32)c(C#N)c(-n2c3ccccc3c3cc(I)ccc32)c(-n2c3ccccc3c3cc(I)ccc32)c1-n1c2ccccc2c2cc(I)ccc21` registered an absorption maximum (in Cc1ccccc1) of 383 nm.

As for `Cc1ccc(C(=O)c2c(C)c3ccc4cccc5c6cccc7ccc2c(c76)c3c45)cc1`, the absorption maximum (in ClCCl) amounted to 391 nm.

As to `CC1=[N+]2C(=C(Oc3ccccc3)c3ccc(C)n3[B-]2(F)F)C=C1c1cc2n(c1)[B-](F)(F)[N+]1=CC=CC1=C2c1c(C)cc(C)cc1C`, the absorption maximum runs as follows: (in C1CCCCC1) 582 nm; (in CCOC(C)=O) 577 nm.

As for `CCc1ccc(/C=N/c2cc(C(C)C)c(O)cc2C)cc1`, the absorption maximum runs as follows: (in C1CCCCC1) 344 nm; (in C1CCOC1) 348 nm; (in C1COCCO1) 347 nm; (in CC#N) 340 nm; (in CC(C)(C)O) 350 nm; (in CC(C)O) 347 nm. The compound further gave an absorption maximum (in CCCCCC) of 342 nm; an absorption maximum (in CCCCO) of 349 nm; an absorption maximum (in CCO) of 346 nm; an absorption maximum (in CCOC(C)=O) of 346 nm; an absorption maximum (in CN(C)C=O) of 351 nm; an absorption maximum (in CO) of 346 nm. In addition, the absorption maximum stood at 352 nm (in CS(C)=O); 343 nm (in ClC(Cl)Cl); 341 nm (in ClCCl); 354 nm (in O); 346 nm (in OCCO).

Take `COc1ccc(-c2cc3c(o2)=CC2=Cc4cc5oc(-c6ccc(OC)cc6)cc5n4[B-](F)(F)[N+]=32)cc1`: the absorption maximum (in ClC(Cl)Cl) is 673 nm and 672 nm.

Where the note is “in C1CCOC1”, `CC(C)(C)c1ccc(-c2c(-c3ccc(-n4c5ccccc5c5ccccc54)cc3)cc(-c3ccc(-n4c5ccccc5c5ccccc54)cc3)c(-c3ccc(C(C)(C)C)cc3)c2-c2ccc(C(C)(C)C)cc2)cc1` had an absorption maximum of 341 nm.

Where the note is “in ClC(Cl)Cl”, `Oc1ccc(C2=[N+]3C(=C(c4ccccc4)c4cccn4[B-]3(F)F)C=C2)cc1` showed an absorption maximum of 541 nm.

Where the note is “in C1CCOC1”, `N#Cc1c(N2CCCCC2)cc(-c2ccc3ccccc3c2)c2c1-c1ccccc1C2` displayed an absorption maximum of 362 nm.

For `C(=C\c1cnc2ccccc2n1)/c1ccc(N2CCCCC2)cc1`, the absorption maximum reads like this: (in C1CCOC1) 410 nm; (in CC#N) 410 nm; (in CCCCCCC) 402 nm; (in CS(C)=O) 423 nm; (in ClCCl) 414 nm.

Compound `CC(C)(C)c1ccc(-n2c(-c3ccc(-c4cccc(-c5c(-c6ccccc6)nc6ccccn56)c4)cc3)nc3c4ccccc4c4ccccc4c32)cc1` displayed an absorption maximum (in ClCCl) of 365 nm.

As for `O=C1C=C(Nc2ccccc2)C(=O)c2ccccc21`, the absorption maximum is, setting by setting: (in CCCCCC) 450 nm; (in CO) 466 nm.

With `COc1ccc(C2=C(c3ccc(OC)cc3)C(C)(C)c3ccc4ccccc4c32)cc1`, the absorption maximum (in C1CCCCC1) is 336 nm.

`Cc1ccc(O)c(-c2[nH]c(=O)n3c2-c2ccccc2C3=O)c1` gave an absorption maximum (in CC#N) of 394 nm, an absorption maximum (in CO) of 399 nm and an absorption maximum (in ClCCl) of 393 nm.

With `CN(C)c1ccc(/C=C/c2cc[n+](CCCOCC(COCCC[n+]3ccc(/C=C/c4ccc(N(C)C)cc4)cc3)(COCCC[n+]3ccc(/C=C/c4ccc(N(C)C)cc4)cc3)COCCC[n+]3ccc(/C=C/c4ccc(N(C)C)cc4)cc3)cc2)cc1`, the absorption maximum runs as follows: (in C1COCCO1) 460 nm; (in CC(C)O) 479 nm; (in CCCCCCCCO) 485 nm; (in CCCCO) 480 nm; (in CCCO) 482 nm; (in CCO) 484 nm. Further, the absorption maximum is, setting by setting: (in CO) 486 nm; (in CS(C)=O) 479 nm; (in ClC(Cl)Cl) 489 nm; (in ClCCl) 489 nm.

As to `CCCCCCOc1ccc2c(c1)C1=[N+]3C2=Cc2c4ccc(OCCCCCC)cc4c4n2[B-]3(Oc2ccccc21)Oc1ccccc1-4` (stereo unspecified), the absorption maximum (in C1CCOC1) came to 748 nm.

For `CCC1(CC)c2ccccc2-c2c1c1c(c3c2C(CC)(CC)c2cc(B(c4c(C)cc(C)cc4C)c4c(C)cc(C)cc4C)ccc2-3)C(CC)(CC)c2cc(B(c3c(C)cc(C)cc3C)c3c(C)cc(C)cc3C)ccc2-1`, the absorption maximum is, setting by setting: (in C1CCOC1) 364 nm; (in CC#N) 359 nm; (in CC(C)=O) 360 nm; (in CCCCCC) 362 nm; (in ClC(Cl)Cl) 362 nm.

For the compound `COc1cc2c(cc1-c1ccc(C#N)cc1)Cc1c3c(c4c(c1-2)-c1cc(OC)c(-c2ccc(C#N)cc2)cc1C4)C(=O)N(CCC(C)C)C3=O`, for the setting “in C1CCOC1”, the absorption maximum was determined as 409 nm.

Where the note is “in ClC(Cl)Cl”, `COc1ccc2c(c1)c(C#N)cc1c(OC)c(OC)c3cc(C#N)c4cc(OC)ccc4c3c12` displayed an absorption maximum of 471 nm.

Regarding `COc1ccc(C2=C/C(=C\c3ccc(C#N)cc3)C(=O)N2)cc1OC`, for the setting “in C1COCCO1”, the absorption maximum is 457 nm.

Consider `CCN(CC)c1ccc2cc(/C=C/C3=CC(/C=C/c4cc5ccc(N(CC)CC)cc5oc4=O)=[O+][B-](F)(F)O3)c(=O)oc2c1`, for which the absorption maximum was 630 nm (in CC#N); 620 nm (in CC(C)=O); 604 nm (in CCOC(C)=O); 641 nm (in CN(C)C=O); 652 nm (in CS(C)=O); 598 nm (in Cc1ccccc1). For the same compound, the absorption maximum (in ClC(Cl)Cl) stood at 615 nm and the absorption maximum (in ClCCl) is listed as 625 nm.

In turn, `O=C(O)CCCCCn1c2ccccc2c(=O)c2ccccc21` showed an absorption maximum (in O) of 410 nm.

Take `N#CC1=CC(c2ccccc2)=CC(C#N)=P1(c1ccccc1)c1ccccc1`: the absorption maximum (in ClC(Cl)Cl) is on record as 480 nm.

With `N#Cc1ccc(N/N=C/c2ccc3ccccc3c2O)cc1`, the absorption maximum worked out at 380 nm (in CC#N); 384 nm (in CCCCCC); 380 nm (in CO); 390 nm (in CS(C)=O); 384 nm (in ClC(Cl)Cl).

In turn, `CN1C(=Cc2c([O-])c(=O)/c2=N\C#N)C(C)(C)c2ccccc21` displayed an absorption maximum (in CCO) of 436 nm.

Consider `CC1=CC(C)=[N+]2C1=C(c1ccc(I)cc1)c1c(C)cc(C)n1[B-]2(OC(C)C)OC(C)C`, for which the absorption maximum (in ClC(Cl)Cl) came out at 504 nm.

Turning to `CC1CCC(O)(c2ccc(-c3cccs3)s2)CC1` (stereo unspecified), the absorption maximum is given as 341 nm (in C1CCOC1); 341 nm (in CC#N); 341 nm (in CCCCCC); 341 nm (in CCO); 345 nm (in OCCOCCO); 345 nm (in c1ccncc1).

Turning to `F[B-]1(F)N2C(=Nc3cccc4cccc2c34)c2cccc[n+]21`, the absorption maximum runs as follows: (in CC#N) 350 nm; (in CO) 348 nm; (in CS(C)=O) 351 nm; (in Cc1ccccc1) 354 nm.

The record behind these values is the Deep4Chem optical property database.
